According to PubChem BioAssay (NCI):
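Exposure lasted 48 hours, with cells grown in 96-well plates and compounds tested at five concentrations. GI50 = concentration required for 50% inhibition of growth. The concentration for full growth arrest is given as TGI.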

What was measured:
Test in all cases: NCI-60 cell line screen, 48 h
KM12 colon = test system: KM12 colon
SR leukemia = test system: SR leukemia
MOLT-4 leukemia = test system: MOLT-4 leukemia
786-0 renal = test system: 786-0 renal
NCI-H226 lung = test system: NCI-H226 lung
UO-31 renal = test system: UO-31 renal
ACHN renal = test system: ACHN renal
OVCAR-4 ovarian = test system: OVCAR-4 ovarian
CAKI-1 renal = test system: CAKI-1 renal
PC-3 prostate = test system: PC-3 prostate
NCI-H522 lung = test system: NCI-H522 lung
NCI/ADR-RES ovarian = test system: NCI/ADR-RES ovarian
SN12C renal = test system: SN12C renal
HOP-62 NSCLC = test system: HOP-62 NSCLC
HCT-15 colon = test system: HCT-15 colon
SF-268 CNS = test system: SF-268 CNS
T-47D breast = test system: T-47D breast
MCF7 breast = test system: MCF7 breast
SK-MEL-5 melanoma = test system: SK-MEL-5 melanoma
TK-10 renal = test system: TK-10 renal
UACC-257 melanoma = test system: UACC-257 melanoma
CCRF-CEM leukemia = test system: CCRF-CEM leukemia
OVCAR-3 ovarian = test system: OVCAR-3 ovarian
SK-OV-3 ovarian = test system: SK-OV-3 ovarian
K-562 leukemia = test system: K-562 leukemia
OVCAR-8 ovarian = test system: OVCAR-8 ovarian
OVCAR-5 ovarian = test system: OVCAR-5 ovarian
HS 578T breast = test system: HS 578T breast
COLO 205 colon = test system: COLO 205 colon
MDA-MB-435 = test system: MDA-MB-435

In the case of `CCOc1ccc(/C=N/NC(=O)Cn2nc(Cc3ccc(OC)cc3)c3onc(C)c3c2=O)cc1`, the TGI (KM12 colon) is reported as > 100 µM, the GI50 (SR leukemia) is reported as 40.3 µM and the TGI (SR leukemia) is reported as > 100 µM. For the same molecule, the GI50 (MOLT-4 leukemia) was 29.8 µM, the TGI (MOLT-4 leukemia) was > 100 µM and the GI50 (786-0 renal) was 2.99 µM. The TGI (786-0 renal) was 10.4 µM, the GI50 (NCI-H226 lung) was 3.43 µM and the TGI (NCI-H226 lung) was 15.9 µM. The GI50 (UO-31 renal) was 4.08 µM, the TGI (UO-31 renal) was 19.5 µM and the GI50 (ACHN renal) was 3.33 µM. The TGI (ACHN renal) was 11 µM, the GI50 (OVCAR-4 ovarian) was 10.8 µM and the TGI (OVCAR-4 ovarian) was 25.3 µM. For the same molecule, the GI50 (CAKI-1 renal) was 3.8 µM, the TGI (CAKI-1 renal) was 14.8 µM and the GI50 (PC-3 prostate) was 12.4 µM. It also gave a TGI (PC-3 prostate) of 84.8 µM, a GI50 (NCI-H522 lung) of 14.5 µM and a TGI (NCI-H522 lung) of 37.7 µM. For the same molecule, the GI50 (NCI/ADR-RES ovarian) was 5.35 µM, the TGI (NCI/ADR-RES ovarian) was 19.7 µM and the GI50 (SN12C renal) was 3.42 µM. It also gave a TGI (SN12C renal) of 13.3 µM, a GI50 (HOP-62 NSCLC) of 4.8 µM and a TGI (HOP-62 NSCLC) of 18.1 µM. For the same molecule, the GI50 (HCT-15 colon) was 15.1 µM, the TGI (HCT-15 colon) was > 100 µM and the GI50 (SF-268 CNS) was 10.5 µM. For the same molecule, the TGI (SF-268 CNS) was 27.4 µM, the GI50 (T-47D breast) was 3.46 µM and the TGI (T-47D breast) was 22.3 µM. The GI50 (MCF7 breast) was 4.37 µM, the TGI (MCF7 breast) was 23.9 µM and the GI50 (SK-MEL-5 melanoma) was 39.7 µM. For the same molecule, the TGI (SK-MEL-5 melanoma) was > 100 µM, the GI50 (TK-10 renal) was 11 µM and the TGI (TK-10 renal) was 28.8 µM. For the same molecule, the GI50 (UACC-257 melanoma) was 13.3 µM, the TGI (UACC-257 melanoma) was 60.9 µM and the GI50 (CCRF-CEM leukemia) was 33.4 µM. For the same molecule, the TGI (CCRF-CEM leukemia) was > 100 µM, the GI50 (OVCAR-3 ovarian) was 3.2 µM and the TGI (OVCAR-3 ovarian) was 10.4 µM. For the same molecule, the GI50 (SK-OV-3 ovarian) was 4.12 µM, the TGI (SK-OV-3 ovarian) was 14.5 µM and the GI50 (K-562 leukemia) was 37.6 µM. The TGI (K-562 leukemia) was > 100 µM, the GI50 (OVCAR-8 ovarian) was 11.2 µM and the TGI (OVCAR-8 ovarian) was 42.1 µM. The GI50 (OVCAR-5 ovarian) was 14.4 µM, the TGI (OVCAR-5 ovarian) was 51.8 µM and the GI50 (HS 578T breast) was 4.26 µM. For the same molecule, the TGI (HS 578T breast) was 29 µM, the GI50 (COLO 205 colon) was 40 µM and the TGI (COLO 205 colon) was > 100 µM. The GI50 (MDA-MB-435) was 25.7 µM and the TGI (MDA-MB-435) was > 100 µM.
